Where “and” joins values, the source holds several entries; their conditions need not be identical. Equal entries are not always repeated. Toxic doses and inconclusive results are not listed. Numbered stars: 1 amine (or outer) side, 2 acyl side, 3 side chain; on linkers, the order of the positions; unused ones are H or OH. Bridge positions count the residues as written; N and C are the ends. Square brackets hold non-standard residues; d marks the D form. Peptide text beside a SMILES is read from it. * marks the point of attachment. X2 = CC(C)C(C)C(C(=O)[*:2])N(C)[*:1]; Picolinoyl(3-OH) = O=C(c1ncccc1O)*; NMePhg = CN[CH](C(=O)O)c1ccccc1; Hyp = O=C(O)[CH]1C[CH](O)CN1; Sar = CNCC(=O)O
Test system: P388 leukemia ip, CD2F1 mice, survival T/C
Assay: NCI In Vivo Anticancer Drug Screen. Data for tumor model P388 Leukemia (intraperitoneal) in CD2F1 (CDF1) mice
Details: endpoint: median survival time, higher = longer survival
Summary of the method: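 Mice carrying the transplanted tumor received test compound or vehicle. Survival was recorded in each group, and the value is the treated-group measurement divided by that of the vehicle-treated control group.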

[1] = dose: 50.0 mg/kg/injection, schedule: Q01DX009 (ip), vehicle: Klucel (hydroxypropylcellulose) (HPC)
[2] = dose: 100.0 mg/kg/injection, schedule: Q01DX009 (ip), vehicle: Klucel (hydroxypropylcellulose) (HPC)
[3] = dose: 200.0 mg/kg/injection, schedule: Q01DX009 (ip), vehicle: Klucel (hydroxypropylcellulose) (HPC)
[4] = dose: 50.0 mg/kg/injection, schedule: Q01DX005 (ip), vehicle: saline with Tween-80
[5] = dose: 100.0 mg/kg/injection, schedule: Q01DX005 (ip), vehicle: saline with Tween-80
[6] = dose: 200.0 mg/kg/injection, schedule: Q01DX005 (ip), vehicle: saline with Tween-80

With `CC(=O)Oc1c(I)cc(Cc2nc(C)oc2C)cc1I` the T/C (dose: 100.0 mg/kg/injection, schedule: Q01DX001 (ip), vehicle: saline) was 99 % of control, the T/C (dose: 200.0 mg/kg/injection, schedule: Q01DX001 (ip), vehicle: saline) was 102 % of control and the T/C (dose: 400.0 mg/kg/injection, schedule: Q01DX001 (ip), vehicle: saline) was 102 % of control.

For `C=C1C(=O)OC2CC(C)C3CC(OC)OC(OC)C3(C)CC12` (centres undefined), the T/C [1] was 105 % of control and 97 % of control, the T/C [2] was 103 % of control and 114 % of control and the T/C [3] was 123 % of control and 97 % of control. For the same compound, the T/C (dose: 400.0 mg/kg/injection, schedule: Q01DX009 (ip), vehicle: Klucel (hydroxypropylcellulose) (HPC)) was 119 % of control.

`CCOC(=O)c1nn(C)c(=O)[nH]c1=O` was tested, and the T/C [4] was 99 % of control, the T/C [5] was 100 % of control and the T/C [6] was 100 % of control.

With `COC(=O)c1[nH]c(=O)c(C#N)c(C(=O)OC)c1C(=O)c1ccncc1` the T/C [4] was 95 % of control and the T/C [5] was 92 % of control.

`CC(C)CC1NC(=O)C(NC(=O)c2ncccc2O)C(C)OC(=O)C(c2ccccc2)N(C)C(=O)C(C)NC(=O)C(C(C)C(C)C)N(C)C(=O)CN(C)C(=O)C2CC(O)CN2C1=O` (centres undefined) ({Picolinoyl(3-OH)}-TL[Hyp][Sar][X2]A[NMePhg]; ester 1-C; configuration not given here) was tested, and the T/C (dose: 12.5 mg/kg/injection, schedule: Q01DX009 (ip), vehicle: Klucel (hydroxypropylcellulose) (HPC)) was 95 % of control, the T/C (dose: 25.0 mg/kg/injection, schedule: Q01DX009 (ip), vehicle: Klucel (hydroxypropylcellulose) (HPC)) was 94 % of control and the T/C [1] was 93 % of control. For the same compound, the T/C [2] was 95 % of control and 97 % of control and the T/C [3] was 98 % of control and 119 % of control.

With `O=S(=O)(O)O.[NH-]CC[NH-].[Pt+2]` the T/C (dose: 6.25 mg/kg/injection, schedule: Q04DX002 (ip), vehicle: saline) was 168 % of control and the T/C (dose: 12.5 mg/kg/injection, schedule: Q04DX002 (ip), vehicle: saline) was 97 % of control.

With `OCC1OC(O)C(N=C/C=C/c2ccccc2)C(O)C1O` (centres undefined) the T/C [4] was 104 % of control, the T/C [5] was 117 % of control and the T/C [6] was 115 % of control.

`CCN(CC)C(=O)N1C=CC(c2ccccc2)C(C(C)=O)=C1` (centres undefined) was tested, and the T/C (dose: 60.0 mg/kg/injection, schedule: Q01DX005 (ip), vehicle: saline with Tween-80) was 91 % of control, the T/C (dose: 120.0 mg/kg/injection, schedule: Q01DX005 (ip), vehicle: saline with Tween-80) was 103 % of control and the T/C (dose: 240.0 mg/kg/injection, schedule: Q01DX005 (ip), vehicle: saline with Tween-80) was 101 % of control.

In the case of `COC(=O)C12N=NN(c3ccccc3)C1(C(=O)OC)C1CCC2C1` (centres undefined), the T/C (dose: 100.0 mg/kg/injection, schedule: Q01DX009 (ip), vehicle: saline with Tween-80) is reported as 95 % of control, the T/C (dose: 200.0 mg/kg/injection, schedule: Q01DX009 (ip), vehicle: saline with Tween-80) is reported as 100 % of control and the T/C (dose: 400.0 mg/kg/injection, schedule: Q01DX009 (ip), vehicle: saline with Tween-80) is reported as 90 % of control.

`O=C(O)CCCNSc1ccccc1[N+](=O)[O-]` was tested, and the T/C (dose: 12.5 mg/kg/injection, schedule: Q01DX009 (ip), vehicle: saline) was 100 % of control and 117 % of control, the T/C (dose: 25.0 mg/kg/injection, schedule: Q01DX009 (ip), vehicle: saline) was 108 % of control and 94 % of control and the T/C (dose: 50.0 mg/kg/injection, schedule: Q01DX009 (ip), vehicle: saline) was 99 % of control and 110 % of control. For the same compound, the T/C (dose: 100.0 mg/kg/injection, schedule: Q01DX009 (ip), vehicle: saline) was 100 % of control and 108 % of control.

For `CSCSCC(CO)NC(=O)/C=C/c1c[nH]c(=O)[nH]c1=O` (centres undefined), the T/C (dose: 1.0 mg/kg/injection, schedule: Q01DX009 (ip), vehicle: other) was 92 % of control, the T/C (dose: 2.0 mg/kg/injection, schedule: Q01DX009 (ip), vehicle: other) was 97 % of control and the T/C (dose: 4.0 mg/kg/injection, schedule: Q01DX009 (ip), vehicle: other) was 98 % of control. For the same compound, the T/C (dose: 8.0 mg/kg/injection, schedule: Q01DX009 (ip), vehicle: other) was 93 % of control, the T/C (dose: 16.0 mg/kg/injection, schedule: Q01DX009 (ip), vehicle: other) was 102 % of control and the T/C (dose: 32.0 mg/kg/injection, schedule: Q01DX009 (ip), vehicle: other) was 107 % of control.

In the case of `CCCCCCC1NC1Cc1ccccc1` (centres undefined), the T/C (dose: 4.5 mg/kg/injection, schedule: Q01DX009 (ip), vehicle: saline with Tween-80) is reported as 115 % of control, the T/C (dose: 9.0 mg/kg/injection, schedule: Q01DX009 (ip), vehicle: saline with Tween-80) is reported as 111 % of control and the T/C (dose: 18.0 mg/kg/injection, schedule: Q01DX009 (ip), vehicle: saline with Tween-80) is reported as 110 % of control.

For `CCN(CC)CCNc1ccc(C)c2sc3ccccc3c(=O)c12`, the T/C (dose: 6.25 mg/kg/injection, schedule: Q01DX005 (ip), vehicle: distilled water + Tween-80) was 100 % of control and 106 % of control, the T/C (dose: 6.25 mg/kg/injection, schedule: Q01DX009 (ip), vehicle: water) was 100 % of control and the T/C (dose: 7.8 mg/kg/injection, schedule: Q01DX005 (ip), vehicle: saline) was 109 % of control. For the same compound, the T/C (dose: 12.5 mg/kg/injection, schedule: Q01DX005 (ip), vehicle: distilled water + Tween-80) was 101 % of control and 104 % of control and 107 % of control, the T/C (dose: 12.5 mg/kg/injection, schedule: Q01DX009 (ip), vehicle: water) was 99 % of control and the T/C (dose: 13.0 mg/kg/injection, schedule: Q01DX005 (ip), vehicle: water) was 120 % of control. The T/C (dose: 15.6 mg/kg/injection, schedule: Q01DX005 (ip), vehicle: saline) was 113 % of control, the T/C (dose: 16.2 mg/kg/injection, schedule: Q01DX005 (ip), vehicle: saline) was 107 % of control and 108 % of control and the T/C (dose: 16.2 mg/kg/injection, schedule: Q01DX005 (ip), vehicle: water) was 107 % of control. For the same compound, the T/C (dose: 19.4 mg/kg/injection, schedule: Q01DX005 (ip), vehicle: saline) was 102 % of control, the T/C (dose: 19.4 mg/kg/injection, schedule: Q01DX005 (ip), vehicle: water) was 109 % of control and the T/C (dose: 19.44 mg/kg/injection, schedule: Q01DX005 (ip), vehicle: saline) was 114 % of control. For the same compound, the T/C (dose: 21.6 mg/kg/injection, schedule: Q01DX005 (ip), vehicle: water) was 117 % of control, the T/C (dose: 25.0 mg/kg/injection, schedule: Q01DX005 (ip), vehicle: saline with Tween-80) was 114 % of control and the T/C (dose: 25.0 mg/kg/injection, schedule: Q01DX009 (ip), vehicle: water) was 100 % of control. For the same compound, the T/C (dose: 27.0 mg/kg/injection, schedule: Q01DX005 (ip), vehicle: saline) was 114 % of control, the T/C (dose: 27.0 mg/kg/injection, schedule: Q01DX005 (ip), vehicle: water) was 118 % of control and the T/C (dose: 32.4 mg/kg/injection, schedule: Q01DX005 (ip), vehicle: saline) was 111 % of control. The T/C (dose: 32.4 mg/kg/injection, schedule: Q01DX005 (ip), vehicle: water) was 119 % of control, the T/C (dose: 38.9 mg/kg/injection, schedule: Q04DX003 (ip), vehicle: saline) was 119 % of control and the T/C (dose: 45.0 mg/kg/injection, schedule: Q01DX005 (ip), vehicle: saline) was 124 % of control. For the same compound, the T/C (dose: 50.0 mg/kg/injection, schedule: Q01DX009 (ip), vehicle: water) was 115 % of control, the T/C (dose: 54.0 mg/kg/injection, schedule: Q01DX005 (ip), vehicle: saline) was 152 % of control and the T/C (dose: 54.0 mg/kg/injection, schedule: Q01DX005 (ip), vehicle: water) was 123 % of control. The T/C (dose: 62.5 mg/kg/injection, schedule: Q01DX005 (ip), vehicle: saline) was 181 % of control, the T/C (dose: 75.0 mg/kg/injection, schedule: Q01DX005 (ip), vehicle: saline) was 156 % of control and the T/C (dose: 75.0 mg/kg/injection, schedule: Q01DX005 (ip), vehicle: water) was 151 % of control. The T/C (dose: 80.0 mg/kg/injection, schedule: Q01DX005 (ip), vehicle: water) was 156 % of control, the T/C (dose: 90.0 mg/kg/injection, schedule: Q01DX005 (ip), vehicle: saline) was 154 % of control and the T/C (dose: 125.0 mg/kg/injection, schedule: Q01DX005 (ip), vehicle: saline) was 166 % of control and 168 % of control. For the same compound, the T/C (dose: 180.0 mg/kg/injection, schedule: Q04DX003 (ip), vehicle: saline) was 168 % of control.

`Oc1[nH]c2ccccc2c1N=Nc1nnc(-c2ccccc2)c(-c2ccccc2)n1` was tested, and the T/C [4] was 95 % of control, the T/C [5] was 107 % of control and the T/C [6] was 101 % of control.

With `CCSc1nc2ccc(N=C/C=C/c3ccccc3)cc2s1` the T/C [1] was 110 % of control, the T/C [2] was 98 % of control and the T/C [3] was 110 % of control.

With `CN1CCCN2CCCN(C)P12` the T/C (dose: 6.25 mg/kg/injection, schedule: Q01DX005 (ip), vehicle: saline) was 99 % of control, the T/C (dose: 12.5 mg/kg/injection, schedule: Q01DX005 (ip), vehicle: saline) was 98 % of control and the T/C (dose: 25.0 mg/kg/injection, schedule: Q01DX005 (ip), vehicle: saline) was 105 % of control.

In the case of `N/N=C1/C(=O)N(c2cccc([N+](=O)[O-])c2)C(=O)C1C(=O)Nc1cccc([N+](=O)[O-])c1` (centres undefined), the T/C (dose: 37.5 mg/kg/injection, schedule: Q01DX005 (ip), vehicle: saline with Tween-80) is reported as 101 % of control, the T/C (dose: 75.0 mg/kg/injection, schedule: Q01DX005 (ip), vehicle: saline with Tween-80) is reported as 100 % of control and the T/C (dose: 150.0 mg/kg/injection, schedule: Q01DX005 (ip), vehicle: saline with Tween-80) is reported as 105 % of control.

— PubChem BioAssay AID330 (DTP/NCI, 2004)
